Results: ChEMBL document CHEMBL1201861, “Genomics of Drug Sensitity in Cancer screening data, Wellcome Trust Sanger Institute”

Legend:
Assay in all cases: cells
[1] = test system: BFTC-905; assay type: functional, cell-based, Homo sapiens; settings: Homo sapiens, BFTC-905
Description: SANGER: Inhibition of human BFTC-905 cell growth in a cell viability assay.

[2] = test system: A 172; assay type: functional, cell-based, Homo sapiens; settings: Homo sapiens, A 172;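 also: growth inhibition of A172 cells, measured with a cell viability readout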
Description: SANGER: Inhibition of human A172 cell growth in a cell viability assay.

[3] = test system: GAK; assay type: functional, cell-based, Homo sapiens; settings: Homo sapiens, GAK;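 also: cell growth inhibition read out by a cell viability assay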
Description: SANGER: Inhibition of human GAK cell growth in a cell viability assay.

[4] = test system: P12-Ichikawa; assay type: functional, cell-based; settings: Homo sapiens
[5] = test system: NCI-H661; assay type: functional, cell-based, Homo sapiens; settings: Homo sapiens, NCI-H661;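 also: cell viability assay read-out, IC50 being the concentration that inhibits growth of the cells by half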
Description: SANGER: Inhibition of human NCI-H661 cell growth in a cell viability assay.

[6] = test system: NCI-H1755; assay type: functional, cell-based, Homo sapiens; settings: Homo sapiens, NCI-H1755;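 also: cell viability readout used to measure growth inhibition of NCI-H1755 cells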
Description: SANGER: Inhibition of human NCI-H1755 cell growth in a cell viability assay.

[7] = test system: SBC-5; assay type: functional, cell-based, Homo sapiens; settings: Homo sapiens, SBC-5;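 also: cell viability assay read-out, IC50 is the concentration that inhibits growth of the cells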
Description: SANGER: Inhibition of human SBC-5 cell growth in a cell viability assay.

[8] = test system: CTB-1; assay type: functional, cell-based; settings: Homo sapiens
Description: SANGER: Inhibition of human CTB-1 cell growth in a cell viability assay.

[9] = test system: NCI-H23; assay type: functional, cell-based, Homo sapiens; settings: Homo sapiens, NCI-H23;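 also: cell viability assay measuring growth inhibition of NCI-H23 cells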
Description: SANGER: Inhibition of human NCI-H23 cell growth in a cell viability assay.

[10] = test system: BXPC-3; assay type: functional, cell-based, Homo sapiens; settings: Homo sapiens, BXPC-3;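 also: growth inhibition of human BxPC-3 cells, read out by a cell viability assay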
Description: SANGER: Inhibition of human BxPC-3 cell growth in a cell viability assay.

[11] = test system: CAL-72; assay type: functional, cell-based, Homo sapiens; settings: Homo sapiens, CAL-72;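 also: cell viability assay measuring inhibition of proliferation in the CAL-72 cell line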
Description: SANGER: Inhibition of human CAL-72 cell growth in a cell viability assay.

[12] = test system: T-24; assay type: functional, cell-based, Homo sapiens; settings: Homo sapiens, T-24;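 also: growth inhibition of T-24 cells, read out with a cell viability assay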
Description: SANGER: Inhibition of human T-24 cell growth in a cell viability assay.

[13] = test system: NCI-H747; assay type: functional, cell-based; settings: Homo sapiens;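 also: growth inhibition of human NCI-H747 cells, read out by a cell viability assay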
Description: SANGER: Inhibition of human NCI-H747 cell growth in a cell viability assay.

[14] = test system: IA-LM; assay type: functional, cell-based, Homo sapiens; settings: Homo sapiens, IA-LM;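 also: cell viability assay measuring growth inhibition of human IA-LM cells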
Description: SANGER: Inhibition of human IA-LM cell growth in a cell viability assay.

[15] = test system: CP50-MEL-B; assay type: functional, cell-based, Homo sapiens; settings: Homo sapiens, CP50-MEL-B;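 also: growth inhibition of the human cell line, measured with a cell viability read-out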
Description: SANGER: Inhibition of human CP50-MEL-B cell growth in a cell viability assay.

[16] = test system: NCI-H1651; assay type: functional, cell-based, Homo sapiens; settings: Homo sapiens, NCI-H1651;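 also: Read-out is a cell viability assay, with IC50 expressing inhibition of NCI-H1651 cell growth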
Description: SANGER: Inhibition of human NCI-H1651 cell growth in a cell viability assay.

[17] = test system: TK-10; assay type: functional, cell-based, Homo sapiens; settings: Homo sapiens, TK-10;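 also: growth inhibition of TK-10 cells, read out in a cell viability assay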
Description: SANGER: Inhibition of human TK10 cell growth in a cell viability assay.

[18] = test system: D-263MG; assay type: functional, cell-based, Homo sapiens; settings: Homo sapiens, D-263MG
Description: SANGER: Inhibition of human D-263MG cell growth in a cell viability assay.

[19] = test system: HuCCT-1; assay type: functional, cell-based, Homo sapiens, HuCCT1; settings: Homo sapiens, HuCCT-1;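 also: growth inhibition of HuCCT-1 cells, read out by a cell viability assay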
Description: SANGER: Inhibition of human HuCCT1 cell growth in a cell viability assay.

[20] = test system: SCC-25; assay type: functional, cell-based, Homo sapiens; settings: Homo sapiens, SCC-25;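 also: growth inhibition of SCC-25 cells, measured with a cell viability assay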
Description: SANGER: Inhibition of human SCC-25 cell growth in a cell viability assay.

[21] = test system: OAW-42; assay type: functional, cell-based, Homo sapiens; settings: Homo sapiens, OAW-42;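 also: growth inhibition of OAW-42 cells, read out with a cell viability assay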
Description: SANGER: Inhibition of human OAW-42 cell growth in a cell viability assay.

[22] = test system: CHL-1; assay type: functional, cell-based, Homo sapiens; settings: Homo sapiens, CHL-1;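 also: cell growth inhibition, read out with a cell viability assay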
Description: SANGER: Inhibition of human CHL-1 cell growth in a cell viability assay.

[23] = test system: MHH-PREB-1; assay type: functional, cell-based; settings: Homo sapiens;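 also: cell viability assay measuring inhibition of proliferation of human MHH-PREB-1 cells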
Description: SANGER: Inhibition of human MHH-PREB-1 cell growth in a cell viability assay.

[24] = test system: NCI-H2052; assay type: functional, cell-based, Homo sapiens; settings: Homo sapiens, NCI-H2052;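 also: growth inhibition of NCI-H2052 cells, read out with a cell viability assay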
Description: SANGER: Inhibition of human NCI-H2052 cell growth in a cell viability assay.

[25] = test system: NCI-H596; assay type: functional, cell-based, Homo sapiens; settings: Homo sapiens, NCI-H596;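 also: growth inhibition of NCI-H596 cells, read out with a cell viability assay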
Description: SANGER: Inhibition of human NCI-H596 cell growth in a cell viability assay.

[26] = test system: KG-1; assay type: functional, cell-based; settings: Homo sapiens;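 also: growth inhibition of KG-1 cells, read out by a cell viability assay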
Description: SANGER: Inhibition of human KG-1 cell growth in a cell viability assay.

[27] = test system: HCC1395; assay type: functional, cell-based, Homo sapiens; settings: Homo sapiens, HCC1395;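 also: growth inhibition of HCC1395 cells, read out by a cell viability assay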
Description: SANGER: Inhibition of human HCC1395 cell growth in a cell viability assay.

[28] = test system: TE-10; assay type: functional, cell-based, Homo sapiens; settings: Homo sapiens, TE-10;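 also: growth inhibition of TE-10 cells, measured by a cell viability assay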
Description: SANGER: Inhibition of human TE-10 cell growth in a cell viability assay.

[29] = test system: K5; assay type: functional, cell-based, Homo sapiens; settings: Homo sapiens, K5
Description: SANGER: Inhibition of human K5 cell growth in a cell viability assay.

[30] = test system: ONS-76; assay type: functional, cell-based, Homo sapiens; settings: Homo sapiens, ONS-76;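 also: growth inhibition of human ONS-76 cells, read out with a cell viability assay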
Description: SANGER: Inhibition of human ONS-76 cell growth in a cell viability assay.

[31] = test system: SK-MEL-24; assay type: functional, cell-based; settings: Homo sapiens;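 also: growth inhibition read out by a cell viability assay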
Description: SANGER: Inhibition of human SK-MEL-24 cell growth in a cell viability assay.

[32] = test system: JEG-3; assay type: functional, cell-based, Homo sapiens; settings: Homo sapiens, JEG-3;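 also: growth inhibition of human JEG-3 cells, read out with a cell viability assay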
Description: SANGER: Inhibition of human JEG-3 cell growth in a cell viability assay.

[33] = test system: HOS; assay type: functional, cell-based, Homo sapiens; settings: Homo sapiens, HOS;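 also: growth inhibition of human HOS cells, read out with a cell viability assay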
Description: SANGER: Inhibition of human HOS cell growth in a cell viability assay.

[34] = test system: HCE-4; assay type: functional, cell-based, Homo sapiens; settings: Homo sapiens, HCE-4;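 also: cell viability assay measuring inhibition of growth in the human HCE-4 cell line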
Description: SANGER: Inhibition of human HCE-4 cell growth in a cell viability assay.

[35] = test system: MDA-MB-157; assay type: functional, cell-based, Homo sapiens; settings: Homo sapiens, MDA-MB-157
Description: SANGER: Inhibition of human MDA-MB-157 cell growth in a cell viability assay.

[36] = test system: SNU-387; assay type: functional, cell-based, Homo sapiens; settings: Homo sapiens, SNU-387
Description: SANGER: Inhibition of human SNU-387 cell growth in a cell viability assay.

[37] = test system: HL-60; assay type: functional, cell-based; settings: Homo sapiens;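 also: growth inhibition of human HL-60 cells, read out with a cell viability assay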
Description: SANGER: Inhibition of human HL-60 cell growth in a cell viability assay.

[38] = test system: RPMI-8866; assay type: functional, cell-based; settings: Homo sapiens
Description: SANGER: Inhibition of human RPMI-8866 cell growth in a cell viability assay.

[39] = test system: 5637; assay type: functional, cell-based, Homo sapiens; settings: Homo sapiens
Description: SANGER: Inhibition of human 5637 cell growth in a cell viability assay.

[40] = test system: 8-MG-BA; assay type: functional, cell-based, Homo sapiens; settings: Homo sapiens, 8-MG-BA;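 also: growth inhibition of 8-MG-BA cells, read out with a cell viability assay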
Description: SANGER: Inhibition of human 8-MG-BA cell growth in a cell viability assay.

[41] = test system: HT-144; assay type: functional, cell-based, Homo sapiens; settings: Homo sapiens, HT-144
Description: SANGER: Inhibition of human HT-144 cell growth in a cell viability assay.

[42] = test system: BB30-HNC; assay type: functional, cell-based, Homo sapiens; settings: Homo sapiens, BB30-HNC;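 also: growth inhibition of the cultured cell line, read out by a cell viability assay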
Description: SANGER: Inhibition of human BB30-HNC cell growth in a cell viability assay.

[43] = test system: MPP-89; assay type: functional, cell-based, Homo sapiens; settings: Homo sapiens, MPP-89;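 also: growth inhibition of human MPP-89 cells, read out with a cell viability assay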
Description: SANGER: Inhibition of human MPP-89 cell growth in a cell viability assay.

[44] = test system: SKG-IIIa; assay type: functional, cell-based, Homo sapiens; settings: Homo sapiens, SKG-IIIa;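 also: cell growth inhibition, read out with a cell viability assay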
Description: SANGER: Inhibition of human SKG-IIIa cell growth in a cell viability assay.

[45] = test system: NCI-H2347; assay type: functional, cell-based, Homo sapiens; settings: Homo sapiens, NCI-H2347;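 also: growth inhibition of the cell line, read out with a cell viability assay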
Description: SANGER: Inhibition of human NCI-H2347 cell growth in a cell viability assay.

[46] = test system: GI-1; assay type: functional, cell-based, Homo sapiens; settings: Homo sapiens, GI-1;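 also: growth inhibition of human GI-1 cells, measured with a cell viability readout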
Description: SANGER: Inhibition of human GI-1 cell growth in a cell viability assay.

[47] = test system: HCC1187; assay type: functional, cell-based, Homo sapiens; settings: Homo sapiens, HCC1187;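 also: growth inhibition of HCC1187 cells, read out with a cell viability assay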
Description: SANGER: Inhibition of human HCC1187 cell growth in a cell viability assay.

[48] = test system: NCI-H720; assay type: functional, cell-based; settings: Homo sapiens;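 also: growth inhibition of human NCI-H720 cells determined by a cell viability assay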
Description: SANGER: Inhibition of human NCI-H720 cell growth in a cell viability assay.

[49] = test system: KU812 cell line; assay type: functional, cell-based; settings: Homo sapiens;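 also: growth inhibition of KU812 cells, read out with a cell viability assay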
Description: SANGER: Inhibition of human KU812 cell growth in a cell viability assay.

[50] = test system: IGROV-1; assay type: functional, cell-based, Homo sapiens; settings: Homo sapiens, IGROV-1;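 also: reduction of IGROV-1 cell growth, read out with a viability assay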
Description: SANGER: Inhibition of human IGROV-1 cell growth in a cell viability assay.

For `CN(Cc1cnc2nc(N)nc(N)c2n1)c1ccc(C(=O)N[C@@H](CCC(=O)O)C(=O)O)cc1` [METHOTREXATE], the IC50 [1] was > 200 nM, the IC50 [2] was > 200 nM and the IC50 [3] was > 200 nM. The IC50 [4] was 41.3 nM, the IC50 [5] was > 200 nM and the IC50 [6] was > 200 nM. For the same compound, the IC50 [7] was 69.4 nM, the IC50 [8] was 16.2 nM and the IC50 [9] was > 200 nM. For the same compound, the IC50 [10] was > 200 nM, the IC50 [11] was > 200 nM and the IC50 [12] was > 200 nM. For the same compound, the IC50 [13] was > 200 nM, the IC50 [14] was > 200 nM and the IC50 [15] was > 200 nM. The IC50 [16] was > 200 nM, the IC50 [17] was > 200 nM and the IC50 [18] was > 200 nM. For the same compound, the IC50 [19] was > 200 nM, the IC50 [20] was > 200 nM and the IC50 [21] was > 200 nM. The IC50 [22] was > 200 nM, the IC50 [23] was 13.2 nM and the IC50 [24] was > 200 nM. The IC50 [25] was > 200 nM, the IC50 [26] was > 200 nM and the IC50 [27] was > 200 nM. The IC50 [28] was > 200 nM, the IC50 [29] was 59.8 nM and the IC50 [30] was 63.8 nM. For the same compound, the IC50 [31] was > 200 nM, the IC50 [32] was > 200 nM and the IC50 [33] was > 200 nM. The IC50 [34] was > 200 nM, the IC50 [35] was > 200 nM and the IC50 [36] was > 200 nM. For the same compound, the IC50 [37] was 24.8 nM, the IC50 [38] was 20 nM and the IC50 [39] was > 200 nM. The IC50 [40] was > 200 nM, the IC50 [41] was > 200 nM and the IC50 [42] was 94.3 nM. For the same compound, the IC50 [43] was > 200 nM, the IC50 [44] was > 200 nM and the IC50 [45] was > 200 nM. For the same compound, the IC50 [46] was > 200 nM.

Compound `COc1cc(F)c(F)c(Nc2ccc(I)cc2F)c1NS(=O)(=O)C1(CC(O)CO)CC1` (configuration not stated) has an IC50 [1] of 719 nM, an IC50 [3] of 565 nM and an IC50 [4] of 1780 nM. The IC50 [5] was > 5000 nM, the IC50 [6] was > 5000 nM and the IC50 [7] was > 5000 nM. For the same compound, the IC50 [8] was > 5000 nM, the IC50 [9] was > 5000 nM and the IC50 [10] was 1600 nM. The IC50 [11] was > 5000 nM, the IC50 [12] was > 5000 nM and the IC50 [13] was 657 nM. The IC50 [14] was 4190 nM, the IC50 [15] was 21.5 nM and the IC50 [16] was > 5000 nM. The IC50 [17] was 2210 nM, the IC50 [18] was 431 nM and the IC50 [19] was 905 nM. For the same compound, the IC50 [47] was > 5 µM, the IC50 [20] was 490 nM and the IC50 [21] was > 5000 nM. For the same compound, the IC50 [22] was 1180 nM, the IC50 [23] was > 5000 nM and the IC50 [24] was > 5000 nM. For the same compound, the IC50 [25] was > 5000 nM, the IC50 [26] was > 5000 nM and the IC50 [27] was > 5000 nM. For the same compound, the IC50 [28] was > 5000 nM, the IC50 [30] was 500 nM and the IC50 [31] was > 5000 nM. The IC50 [32] was > 5000 nM, the IC50 [33] was > 5000 nM and the IC50 [34] was > 5000 nM. For the same compound, the IC50 [35] was > 5000 nM, the IC50 [36] was 2420 nM and the IC50 [37] was 32.4 nM. The IC50 [38] was > 5000 nM, the IC50 [39] was > 5000 nM and the IC50 [48] was > 5000 nM. For the same compound, the IC50 [40] was > 5000 nM, the IC50 [41] was 49 nM and the IC50 [49] was 239 nM. For the same compound, the IC50 [42] was 1580 nM, the IC50 [43] was > 5000 nM and the IC50 [44] was > 5000 nM. The IC50 [45] was 868 nM, the IC50 [46] was > 5000 nM and the IC50 [50] was 1780 nM.

`COc1ccc(-c2ccc3c(N4CCOC[C@@H]4C)nc(N4CCOC[C@@H]4C)nc3n2)cc1CO` [AZD-8055] showed an IC50 [1] of 621 nM, an IC50 [3] of 1320 nM and an IC50 [4] of 1030 nM. It also gave an IC50 [5] of 1450 nM, an IC50 [6] of 1140 nM and an IC50 [7] of 1550 nM. For the same compound, the IC50 [8] was 272 nM, the IC50 [9] was 1560 nM and the IC50 [10] was 888 nM. The IC50 [11] was > 2000 nM, the IC50 [12] was > 2000 nM and the IC50 [13] was 760 nM. The IC50 [14] was 596 nM, the IC50 [15] was 884 nM and the IC50 [16] was > 2000 nM. For the same compound, the IC50 [17] was 1360 nM, the IC50 [18] was 1330 nM and the IC50 [19] was > 2000 nM. For the same compound, the IC50 [47] was > 2 µM, the IC50 [20] was 1580 nM and the IC50 [21] was 592 nM. For the same compound, the IC50 [22] was 327 nM, the IC50 [23] was 747 nM and the IC50 [24] was 1860 nM. The IC50 [25] was 1260 nM, the IC50 [26] was 569 nM and the IC50 [27] was > 2000 nM. For the same compound, the IC50 [28] was > 2000 nM, the IC50 [30] was > 2000 nM and the IC50 [31] was > 2000 nM. For the same compound, the IC50 [32] was 1580 nM, the IC50 [33] was 572 nM and the IC50 [34] was > 2000 nM. For the same compound, the IC50 [35] was 678 nM, the IC50 [36] was 1520 nM and the IC50 [37] was 604 nM. For the same compound, the IC50 [38] was 858 nM, the IC50 [39] was 1770 nM and the IC50 [48] was 29.4 nM. For the same compound, the IC50 [40] was 1980 nM, the IC50 [41] was 1170 nM and the IC50 [49] was 80.4 nM. For the same compound, the IC50 [42] was 1860 nM, the IC50 [43] was 469 nM and the IC50 [44] was 1310 nM. For the same compound, the IC50 [45] was 824 nM, the IC50 [46] was > 2000 nM and the IC50 [50] was 675 nM.
